Patent US20100041089A1, “IMPROVED METHOD FOR DETECTING CHEMICAL […]” (priority 2006, published 2010)

Test system: yeast genes (expressed mRNA)
Test: DNA chip measurement of expressed mRNA of yeast genes after culture with a toxic chemical substance
Assay type: cell-based, Saccharomyces cerevisiae S288C
Description: Yeast (Saccharomyces cerevisiae S288C (a SUC2mal mel gap2 CUP1)) were cultured at 25° C. on YPD medium (yeast extract 1%, polypeptone 2%, glucose 2%). One of toxic chemical substances was added to the cell at logarithmic growth phase, and the cell was further cultured for two hours. Cell was cultured without any chemical substance in the same condition, and was used as a control. Concentrations of the chemical substances were defined to inhibit the growth of the yeast but not lead to death.
After the completion of cultivation, the culture was centrifuged to collect the cells. To the cells, sodium acetate buffer (50 mM sodium acetate, 10 mM EDTA, 1% SDS) was added, and the mixture was shaken at 65° C. for five minutes, followed by returning to room temperature, and obtaining the supernatant, which procedure was repeated two times. To the supernatant, ½ amount of a solution of phenol/chloroform (1:1) was added, and the mixture was centrifuged to give a supernatant, an equal amount of chloroform was added, and the mixture was centrifuged to give a supernatant. To the supernatant, an equal amount of isopropanol containing 0.3 M sodium acetate was added, and the mixture was allowed to stand at room temperature for 30 minutes, after which the mixture was centrifuged to give sediment of the whole RNAs. Seventy % ethanol was added to the sediment, and the mixture was again centrifuged to give sediment, which was then dried and dissolved in water. mRNA was isolated from the whole RNAs as followings. In view of the fact that a poly A chain is attached to the 3′ terminus of mRNA, a polynucleotide having a poly T structure which was immobilized on the surface of latex beads was used to trap the mRNA, and then the mRNA was washed and eluted with spine column (Oligotex-dT30<Super>mRNA Purification Kit, Takara). Reverse transcription of the mRNA was conducted with a reverse transcriptase (Super Script II Reverse Transcriptase; catalogue No. 18064-014, GibcoBRL) using fluorescence-labeled nucleotides to give cDNAs that were introduced with Cy3-dUTP or Cy5-dUTP during the reverse transcription.
The labeled cDNAs were dissolved in TE buffer (10 mM Tris-HCl/1 mM EDTA, pH 8.0), and the solution was dropped on the DNA chip containing the whole genes of yeast (DNA Chip Research Inc. Japan) so that the cDNAs were hybridized on the DNA chip at 65° C. for over 12 hours. The fluoresces intensity of the DNA chip was read with a scanner, and the ratio relative to the fluorescence intensity resulting from the absence of chemical substance was estimated as the following, which is shown in Tables 1 to 9.
In the Tables, “Intensity” indicated in the rightmost column is a value of the level of expressed mRNA of each gene in control cells as divided by the average level of the expressions of the whole genes. A gene of which mRNA level is lower in control, and is higher in cases of addition of chemical substance, is especially useful in the detection of toxic substances.
Here, when a ratio of an amount of mRNA expressed in the presence of the chemical substance to an amount of mRNA expressed in the absence of the chemical substance is two or more, then it is considered significant.

SMILES: CCCCC[C@H](O)CC(=O)CCc1ccc(O)c(OC)c1 [(13), Gingerol]
- The level of expressed mRNA in the presence of chemical substance/The level of expressed mRNA in the absence of chemical substance, yeast gene YDL067C (gene YDL067C (mitochondria-located protein gene), yeast cultured two hours with chemical substance, DNA chip fluorescence ratio to control): 0.6
- The level of expressed mRNA in the presence of chemical substance/The level of expressed mRNA in the absence of chemical substance, yeast gene YDR079W (gene YDR079W (mitochondria-located protein gene), yeast cultured two hours with chemical substance, DNA chip fluorescence ratio to control): 1.3
- level of expressed mRNA in the presence of chemical substance / level in the absence of chemical substance (yeast gene YAL018C, cultured two hours with the chemical substance): 1.3
- The level of expressed mRNA in the presence of chemical substance/The level of expressed mRNA in the absence of chemical substance (yeast gene YAR028W, cultured two hours with substance): 1.4
- level of expressed mRNA in the presence of chemical substance / level in the absence of chemical substance (yeast gene YAR047C, cultured two hours with the chemical substance): 1.4
- level of expressed mRNA in the presence of chemical substance / level in the absence of chemical substance (yeast gene YAR064W, cultured two hours with the chemical substance): 1.1
- level of expressed mRNA in the presence of chemical substance / level in the absence of chemical substance (yeast gene YBL044W, cultured two hours with the chemical substance): 0.7
- The level of expressed mRNA in the presence of chemical substance/The level of expressed mRNA in the absence of chemical substance (yeast gene YBL048W, cultured two hours with substance): 2.7
- level of expressed mRNA in the presence of chemical substance / level in the absence of chemical substance (yeast gene YBR012C, cultured two hours with the chemical substance): 2.1
- The level of expressed mRNA in the presence of chemical substance/The level of expressed mRNA in the absence of chemical substance (yeast gene YBR047W, cultured two hours with substance): 1.7
- The level of expressed mRNA in the presence of chemical substance/The level of expressed mRNA in the absence of chemical substance (yeast gene YBR062C, cultured two hours with substance): 2.8
- level of expressed mRNA in the presence of chemical substance / level in the absence of chemical substance (yeast gene YBR066C, cultured two hours with the chemical substance): 0.6
- level of expressed mRNA in the presence of chemical substance / level in the absence of chemical substance (yeast gene YBR124W, cultured two hours with the chemical substance): 0.9
- level of expressed mRNA in the presence of chemical substance / level in the absence of chemical substance (yeast gene YBR162C, cultured two hours with the chemical substance): 0.7
- The level of expressed mRNA in the presence of chemical substance/The level of expressed mRNA in the absence of chemical substance (yeast gene YBR185C, mitochondria-located protein gene, cultured two hours with substance): 1.0
- level of expressed mRNA in the presence of chemical substance / level in the absence of chemical substance (yeast gene YBR287W, cultured two hours with the chemical substance): 3.4
- level of expressed mRNA in the presence of chemical substance / level in the absence of chemical substance (yeast gene YCL042W, cultured two hours with the chemical substance): 7.5
- level of expressed mRNA in the presence of chemical substance / level in the absence of chemical substance (yeast gene YCL056C, cultured two hours with the chemical substance): 1.3
- level of expressed mRNA in the presence of chemical substance / level in the absence of chemical substance (yeast gene YCR007C, cultured two hours with the chemical substance): 1.5
- The level of expressed mRNA in the presence of chemical substance/The level of expressed mRNA in the absence of chemical substance (yeast gene YCR030C, cultured two hours with the chemical substance): 1.7
- level of expressed mRNA in the presence of chemical substance / level in the absence of chemical substance (yeast gene YDL046W, cultured two hours with the chemical substance): 1.5
- The level of expressed mRNA in the presence of chemical substance/The level of expressed mRNA in the absence of chemical substance (yeast gene YDL174C, cultured for two hours with substance): 5.9
- The level of expressed mRNA in the presence of chemical substance/The level of expressed mRNA in the absence of chemical substance (yeast gene YDR001C, cultured for two hours with substance): 2.8
- level of expressed mRNA in the presence of chemical substance / level in the absence of chemical substance (yeast gene YDR090C, cultured two hours with the chemical substance): 0.8
- level of expressed mRNA in the presence of chemical substance / level in the absence of chemical substance (yeast gene YDR128W, cultured two hours with the chemical substance): 1.1
- level of expressed mRNA in the presence of chemical substance / level in the absence of chemical substance (yeast gene YDR133C, cultured two hours with the chemical substance): 0.1
- The level of expressed mRNA in the presence of chemical substance/The level of expressed mRNA in the absence of chemical substance (yeast gene YDR214W, cultured two hours with substance): 5.3
- level of expressed mRNA in the presence of chemical substance / level in the absence of chemical substance (yeast gene YDR250C, cultured two hours with the chemical substance): 1.2
- level of expressed mRNA in the presence of chemical substance / level in the absence of chemical substance (yeast gene YDR278C, cultured two hours with the chemical substance): 0.7
- level of expressed mRNA in the presence of chemical substance / level in the absence of chemical substance (yeast gene YDR281C, cultured two hours with the chemical substance): 0.7
- level of expressed mRNA in the presence of chemical substance / level in the absence of chemical substance (yeast gene YDR366C, cultured two hours with the chemical substance): 0.8
- The level of expressed mRNA in the presence of chemical substance/The level of expressed mRNA in the absence of chemical substance (yeast gene YDR377W, mitochondria-located protein gene, cultured two hours with substance): 0.7
- The level of expressed mRNA in the presence of chemical substance/The level of expressed mRNA in the absence of chemical substance (yeast gene YDR486C, cultured two hours with substance): 1.7
- The level of expressed mRNA in the presence of chemical substance/The level of expressed mRNA in the absence of chemical substance (yeast gene YDR506C): 0.3
- The level of expressed mRNA in the presence of chemical substance/The level of expressed mRNA in the absence of chemical substance (yeast gene YDR533C, cultured two hours with substance): 3.0
- The level of expressed mRNA in the presence of chemical substance/The level of expressed mRNA in the absence of chemical substance (yeast gene YEL024W, mitochondria-located protein gene, cultured two hours with substance): 0.6
- The level of expressed mRNA in the presence of chemical substance/The level of expressed mRNA in the absence of chemical substance (yeast gene YER037W, cultured two hours with substance): 3.0
- The level of expressed mRNA in the presence of chemical substance/The level of expressed mRNA in the absence of chemical substance (yeast gene YER079W, cultured two hours with substance): 2.1
- The level of expressed mRNA in the presence of chemical substance/The level of expressed mRNA in the absence of chemical substance (yeast gene YFL014W, DNA repair protein genes, cultured two hours with substance): 15.2
- The level of expressed mRNA in the presence of chemical substance/The level of expressed mRNA in the absence of chemical substance (yeast gene YFL032W, cultured two hours with substance): 2.4
- The level of expressed mRNA in the presence of chemical substance/The level of expressed mRNA in the absence of chemical substance (yeast gene YFL044C, cultured two hours with substance): 4.7
